Holding throughout (assay): ≥ marks a high value that may be exact or a test limit, other limits are often not marked, values filed in µg/mL are converted to µM
The test system of assay [1] is Escherichia coli ATCC 25922.
The subject of assay [2] is Pseudomonas aeruginosa PAO1.
Assay [3] deals with Staphylococcus aureus USA 300.
For assay [4], the system named is Klebsiella pneumoniae ATCC 13883.
The subject of assay [5] is Micrococcus luteus.
The subject of assay [6] is Staphylococcus aureus ATCC BAA-1556.
Assay [7] relates to Staphylococcus aureus.
Assay [8] deals with Enterococcus faecium.
Assay [9] has as its system Acinetobacter baumannii.
In assay [10] the test system is Escherichia coli.
For assay [11], the system named is Klebsiella pneumoniae.
Assay [12] relates to Pseudomonas aeruginosa.

Consider 15 compounds from DBAASP.

Values after ≈ are worked out from the molar mass of the structure shown. Values joined by “and” are separate entries in the source; they are usually repeats but may differ in a detail not shown here. Equal entries are not always repeated.

With `CC(C)C[C@H](NC(=O)[C@H](CC(C)C)NC(=O)[C@H](CCCCN)NC(=O)[C@H](CC(C)C)NC(=O)[C@H](CCCCN)NC(=O)[C@H](CC(C)C)NC(=O)[C@H](CO)NC(=O)[C@H](CC(C)C)NC(=O)[C@H](CC(C)C)NC(=O)[C@H](CC(C)C)NC(=O)[C@H](CO)NC(=O)[C@H](CC(C)C)NC(=O)CN)C(N)=O` [GLSLLLSLKLKLL], the MIC was over 25 µM in [1], over 25 µM in assay [2], 6.2 µM (≈ 8.74 µg/mL) in [3] and 25 µM (≈ 35.2 µg/mL) in assay [4].

On to `CC(C)C[C@H](NC(=O)[C@H](CC(C)C)NC(=O)[C@H](CCCCN)NC(=O)CNC(=O)[C@H](CC(C)C)NC(=O)[C@H](CO)NC(=O)[C@H](CO)NC(=O)[C@H](CC(C)C)NC(=O)[C@H](CC(C)C)NC(=O)CN)C(N)=O` [GLLSSLGKLL], for which the MIC in assay [1] is over 25 µM; in [2], over 25 µM; in assay [3] it was 25 µM (≈ 25 µg/mL); in assay [4] it was 25 µM (≈ 25 µg/mL).

As for `CC[C@H](C)[C@H](NC(=O)[C@H](CCC(=O)O)NC(=O)[C@@H]1CCCN1C(=O)[C@H](CO)NC(=O)[C@H](Cc1ccccc1)NC(=O)[C@H](C)NC(=O)[C@@H](NC(=O)CNC(=O)[C@H](CC(C)C)NC(=O)[C@H](CCCCN)NC(=O)[C@H](C)NC(=O)[C@H](C)NC(=O)[C@H](CCSC)NC(=O)[C@@H](NC(=O)[C@@H](NC(=O)[C@@H](NC(=O)[C@H](CC(C)C)NC(=O)[C@H](CS)NC(=O)[C@H](CC(N)=O)NC(=O)CNC(=O)[C@H](CC(C)C)NC(=O)[C@H](CC(C)C)NC(=O)[C@@H](N)CCCN=C(N)N)[C@@H](C)O)C(C)C)C(C)C)[C@@H](C)O)C(=O)N[C@@H](CCC(N)=O)C(=O)N[C@@H](CS)C(=O)N[C@@H](C)C(=O)N[C@@H](Cc1c[nH]c2ccccc12)C(=O)N[C@@H](CCC(N)=O)C(=O)N[C@@H](CCCCN)C(=O)O` [RLLGNCLTVVMAAKLGTAFSPEIQCAWQK], in assay [5], the MIC is 31.2 µM (≈ 98.3 µg/mL).

Take `CC(C)C[C@H](NC(=O)[C@H](CC(C)C)NC(=O)[C@H](CCCCN)NC(=O)CNC(=O)[C@H](CC(C)C)NC(=O)[C@H](CO)NC(=O)[C@H](CO)NC(=O)[C@H](CC(C)C)NC(=O)CN)C(N)=O` [GLSSLGKLL]: the MIC in [1] was over 25 µM; in assay [2], over 25 µM; in assay [3], 25 µM (≈ 22.2 µg/mL); in assay [4] it was 25 µM (≈ 22.2 µg/mL).

Consider `CC(C)C[C@H](NC(=O)[C@H](CC(C)C)NC(=O)[C@H](CC(C)C)NC(=O)[C@H](CC(C)C)NC(=O)[C@H](CCCCN)NC(=O)[C@H](CCCCN)NC(=O)[C@H](CC(C)C)NC(=O)[C@H](CC(C)C)NC(=O)[C@@H](N)CC(C)C)C(N)=O` [LLLKKLLLL], for which the MIC in assay [6] is at least 100 µM.

As to `CC(C)C[C@H](NC(=O)[C@H](Cc1c[nH]c2ccccc12)NC(=O)[C@H](Cc1c[nH]c2ccccc12)NC(=O)[C@H](CC(C)C)NC(=O)[C@H](Cc1c[nH]c2ccccc12)NC(=O)[C@H](Cc1c[nH]c2ccccc12)NC(=O)[C@H](CC(C)C)NC(=O)[C@H](Cc1c[nH]c2ccccc12)NC(=O)[C@@H](N)CCCN=C(N)N)C(N)=O` [RWLWWLWWL], the MIC in assay [6] came out at 6.25 µM (≈ 9.02 µg/mL). In other words, the single-digit micromolar range.

For the compound `CC(C)C[C@H](NC(=O)[C@H](Cc1c[nH]c2ccccc12)NC(=O)[C@H](Cc1c[nH]c2ccccc12)NC(=O)[C@H](CC(C)C)NC(=O)[C@H](Cc1c[nH]c2ccccc12)NC(=O)[C@@H](N)Cc1c[nH]c2ccccc12)C(=O)N[C@@H](CCCN=C(N)N)C(=O)N[C@@H](Cc1c[nH]c2ccccc12)C(N)=O` [WWLWWLRW], the minimum inhibitory concentration (MIC) in assay [6] amounted to 6.25 µM (≈ 8.32 µg/mL).

For the compound `CC[C@H](C)[C@H](NC(=O)[C@@H](NC(=O)[C@H](CO)NC(=O)[C@@H](NC(=O)[C@@H](NC(=O)[C@H](CCCCN)NC(=O)CNC(=O)[C@H](CC(C)C)NC(=O)[C@H](CC(C)C)NC(=O)CNC(=O)CNC(=O)[C@H](CC(C)C)NC(=O)[C@H](CC(C)C)NC(=O)CNC(=O)[C@H](CCCCN)NC(=O)[C@H](CO)NC(=O)[C@@H](NC(=O)[C@H](CCCCN)NC(=O)[C@H](Cc1c[nH]c2ccccc12)NC(=O)[C@H](Cc1c[nH]c2ccccc12)NC(=O)[C@H](CCCCN)NC(=O)[C@H](CCCCN)NC(=O)[C@@H](N)CC(C)C)[C@@H](C)O)C(C)C)[C@@H](C)O)C(C)C)C(=O)N[C@@H](CCCCN)C(=O)O` [LKKWWKTSKGLLGGLLGKVTSVIK], the MIC in [7] was 2 µM (≈ 5.28 µg/mL); in assay [8], 1 µM (≈ 2.64 µg/mL); in [9] it was 2.83 µM and 1 µM; in assay [10], 1.41 µM (≈ 3.74 µg/mL); in [3], 5.66 µM (≈ 14.9 µg/mL); in assay [11], 2.83 µM (≈ 7.47 µg/mL). Besides, the MIC in [12] was 2.83 µM and 2 µM and 5.66 µM.

In assay [6], `CC(C)C[C@H](NC(=O)[C@H](CC(C)C)NC(=O)[C@H](CCCCN)NC(=O)[C@H](CC(C)C)NC(=O)[C@H](CCCCN)NC(=O)[C@H](CC(C)C)NC(=O)[C@H](CC(C)C)NC(=O)[C@H](CC(C)C)NC(=O)[C@@H](N)CC(C)C)C(N)=O` [LLLLKLKLL] gave an MIC of at least 100 µM.

Take `CC(C)C[C@H](NC(=O)[C@H](CC(C)C)NC(=O)[C@H](CCCCN)NC(=O)CNC(=O)[C@H](CC(C)C)NC(=O)[C@H](CC(C)C)NC(=O)[C@H](CO)NC(=O)[C@H](CC(C)C)NC(=O)[C@H](CC(C)C)NC(=O)[C@H](CO)NC(=O)[C@H](CC(C)C)NC(=O)[C@H](C)NC(=O)CN)C(N)=O` [GALSLLSLLGKLL]: the MIC in assay [1] is 3.1 µM (≈ 4.02 µg/mL); in [2] it was 12.5 µM (≈ 16.2 µg/mL); in assay [3] it was 0.78 µM (≈ 1.01 µg/mL); in assay [4], 6.2 µM (≈ 8.04 µg/mL).

As to `CC[C@H](C)[C@H](NC(=O)[C@H](CC(C)C)NC(=O)[C@H](CCCN=C(N)N)NC(=O)[C@H](CCCN=C(N)N)NC(=O)[C@H](Cc1c[nH]c2ccccc12)NC(=O)[C@@H](N)CCCCN)C(=O)N[C@@H](CCCN=C(N)N)C(=O)N[C@@H](Cc1c[nH]c2ccccc12)C(=O)N[C@@H](CC(C)C)C(N)=O` [KWRRLIRWL], in assay [6], the MIC amounted to 25 µM (≈ 33.1 µg/mL).

On to `CC(C)C[C@H](NC(=O)[C@H](Cc1c[nH]c2ccccc12)NC(=O)[C@H](CCCN=C(N)N)NC(=O)[C@H](CC(C)C)NC(=O)[C@H](Cc1c[nH]c2ccccc12)NC(=O)[C@H](CCCN=C(N)N)NC(=O)[C@H](CCCN=C(N)N)NC(=O)[C@H](Cc1c[nH]c2ccccc12)NC(=O)[C@@H](N)CCCCN)C(N)=O` [KWRRWLRWL], for which, in assay [6], the MIC is 3.12 µM (≈ 4.37 µg/mL). Compared with the last compound, the MIC is about 8-fold lower.

In turn, `CC[C@H](C)[C@H](NC(=O)[C@H](C)NC(=O)[C@H](CCCN=C(N)N)NC(=O)[C@H](CCCN=C(N)N)NC(=O)[C@H](Cc1c[nH]c2ccccc12)NC(=O)[C@@H](N)CCCCN)C(=O)N[C@@H](CCCN=C(N)N)C(=O)N[C@@H](Cc1c[nH]c2ccccc12)C(=O)N[C@@H](CC(C)C)C(N)=O` [KWRRAIRWL] displayed an MIC in assay [6] of 25 µM (≈ 32.1 µg/mL).

`CC(C)C[C@H](NC(=O)[C@H](CCCCN)NC(=O)[C@H](CC(C)C)NC(=O)[C@H](CC(C)C)NC(=O)[C@H](Cc1c[nH]c2ccccc12)NC(=O)[C@H](CCCCN)NC(=O)[C@H](CC(C)C)NC(=O)[C@H](CC(C)C)NC(=O)[C@H](CCCCN)NC(=O)[C@@H](N)CCCCN)C(N)=O` [KKLLKWLLKL] yielded an MIC in [6] of 12.5 µM (≈ 16 µg/mL).

Turning to `CC(C)C[C@H](NC(=O)[C@H](CC(C)C)NC(=O)[C@H](CC(C)C)NC(=O)[C@H](CC(C)C)NC(=O)[C@H](CC(C)C)NC(=O)[C@H](CCCCN)NC(=O)[C@H](CCCCN)NC(=O)[C@H](CC(C)C)NC(=O)[C@@H](N)CC(C)C)C(N)=O` [LLKKLLLLL], the MIC in assay [6] is 12.5 µM (≈ 13.3 µg/mL). This counts as double-digit micromolar.

The MIC is the least concentration at which growth counts as inhibited.
